{"source": "patent US8709498B2", "about": "“Method of stimulating tissue healing” (priority 2001, dated 2014)", "origin": "cited, not measured here", "key": {"macrophages [1]": {"system": "macrophages"}, "rat RAW264.7 cells": {"system": "rat RAW264.7 cells", "conditions": "for Km: read-out: Km of take-up"}, "[2]": {"system": "endothelial cells of the human umbilical vein", "conditions": "HOCl 5 nM/1.2×10^5 cells, in vitro; no cell death"}, "human skin fibroblasts": {"system": "human skin fibroblasts", "conditions": "human skin fibroblasts in vitro"}, "[3]": {"system": "polymorphonuclear neutrophils", "conditions": "HOCl 250 μM"}, "[4]": {"system": "polymorphonuclear neutrophils", "conditions": "read-out: IC50, chemiluminescence decrease"}, "mouse macrophages": {"system": "mouse macrophages", "conditions": "abolished by nitrite excess"}, "endothelial cells": {"system": "endothelial cells", "conditions": "in vitro, (HOCl)=35 μM"}, "human fibroblasts [5]": {"system": "human fibroblasts"}, "[6]": {"system": "human synoviocytes-like fibroblastes", "conditions": "(TauCl)=400-500 μM"}, "IL-8": {"system": "IL-8", "conditions": "rheumatoid arthritis fibroblast-like synoviocytes"}, "TNF-α": {"system": "TNF-α", "conditions": "dose-dependent"}, "IL-6": {"system": "IL-6", "conditions": "rheumatoid arthritis fibroblast-like synoviocytes"}, "IL-1α": {"system": "IL-1α", "conditions": "all stimulation levels"}, "[7]": {"system": "macrophages or macrophage-line cells"}, "mouse dendritic cells": {"system": "mouse dendritic cells", "conditions": "incubated 24 hours"}, "[8]": {"assay": "not given", "remark": "listed apart in the source"}, "human fibroblasts [9]": {"system": "human fibroblasts", "remark": "listed apart in the source"}, "macrophages [10]": {"system": "macrophages", "conditions": "(NaOCl)=1.0075 mM, after two hours of contact in vitro"}, "[11]": {"system": "rat macrophage like-cells RAW 264.7"}, "[12]": {"system": "human macrophages, fibroblasts and keratinocytes"}}, "note": "Read-outs that look alike come from different tables or passages of the source.", "data": [{"smiles": "NCCS(=O)(=O)O", "note": "[taurine]", "values": [{"measurement": "effect on nitric oxide generation", "setting": "macrophages [1]; taurine alone", "result": "without effect"}, {"measurement": "Vmax of take-up", "setting": "rat RAW264.7 cells; LPS-stimulated macrophages", "result": 116.3, "unit": "pmol/min/10^6 cells"}, {"measurement": "Km", "setting": "rat RAW264.7 cells; LPS-stimulated macrophages", "result": 17.3, "unit": "µM"}, {"measurement": "Vmax of take-up", "setting": "rat RAW264.7 cells; relaxed rat RAW264.7 cells", "result": 90.9, "unit": "pmol/min/10^6 cells"}, {"measurement": "Km", "setting": "rat RAW264.7 cells; relaxed rat RAW264.7 cells", "result": 28.1, "unit": "µM"}]}, {"smiles": "OCl", "note": "[HOCl, hypochlorous acid]", "values": [{"measurement": "effect on cell growth", "setting": "[2]", "result": "temporary stop of cell growth"}, {"measurement": "concentration that does not alter viability or induce cytotoxicity or cell apoptose", "setting": "human skin fibroblasts", "result": "< 50", "unit": "µM"}, {"measurement": "effect on hydrogen peroxide production", "setting": "[3]", "result": "inhibits"}, {"measurement": "IC50", "setting": "[4]", "result": 100, "unit": "µM"}, {"measurement": "HOCl concentration above which cell toxicity increases progressively", "setting": "human endothelial cells; exposition time-dependent", "result": "> 25", "unit": "µM"}, {"measurement": "HOCl concentration that is not toxic", "setting": "human endothelial cells; human endothelial cells in vitro", "result": "≤ 25", "unit": "µM"}, {"measurement": "HOCl concentration with cell contractions, rounding and loss of adherence", "setting": "human endothelial cells; rounded within 10 minutes, majority lost adherence after three hours", "result": 50, "unit": "µM"}, {"measurement": "HOCl concentration above which cell death increases significantly", "setting": "mouse macrophages", "result": "> 0.125", "unit": "mM"}, {"measurement": "HOCl molecules taken up within 15 minutes", "setting": "endothelial cells", "result": 100, "unit": "%"}, {"measurement": "HOCl molecules taken up within ½ minute", "setting": "endothelial cells", "result": 50, "unit": "%"}, {"measurement": "HOCl molecules taken up within the first 10 minutes", "setting": "human fibroblasts [5]", "result": "~80", "unit": "%"}]}, {"smiles": "O=C(O)[C@H](CO)NCl", "note": "[SerCl, Serine N-chloramine]", "values": [{"measurement": "inhibition of nitric oxide generation", "setting": "macrophages [1]; (SerCl)=300 μM, after 24 hours", "result": 22, "unit": "%"}, {"measurement": "inhibition of nitric oxide generation", "setting": "macrophages [1]; (SerCl)=300 μM, immediately after its preparation", "result": 85, "unit": "%"}]}, {"smiles": "O=S(=O)(O)CCNCl", "note": "[TauCl, taurine N-chloramine]", "values": [{"measurement": "viability preserved", "setting": "[6]", "result": "≥ 95", "unit": "%"}, {"measurement": "release of IL-2 and IL-6", "setting": "T cells", "result": "inhibits"}, {"measurement": "inhibition of nitric oxide generation", "setting": "macrophages [1]; 100 µM", "result": "8-22%"}, {"measurement": "inhibition of nitric oxide generation", "setting": "macrophages [1]; 600 µM", "result": 98, "unit": "%"}, {"measurement": "AP-1 DNA-bonding", "setting": "AP-1; (TauCl)=250 μM", "result": "without altering"}, {"measurement": "DNA-bonding activity of AP-1", "setting": "AP-1; TauCl 500 μM", "result": "decreases"}, {"measurement": "concentration that does not alter viability or induce cytotoxicity or cell apoptose", "setting": "human skin fibroblasts", "result": "≤ 100", "unit": "µM"}, {"measurement": "oxidative activity decrease", "setting": "physiological pH (7.4), 37° C.", "result": "below 5 %/hour"}, {"measurement": "TNF-α and ROS generation", "setting": "rat DCs; (TauCl)=250 μM", "result": "not inhibited"}, {"measurement": "production of IL-10, IL-12, PGE2 and nitric oxide", "setting": "rat DCs; (TauCl)=250 μM", "result": "inhibits"}, {"measurement": "release of ROS, nitric oxide, PGE2, TNF-α, IL-6, IL-10 and IL-12", "setting": "rat DCs; (TauCl)=500 μM, two hours pre-incubated", "result": "almost completely inhibits"}, {"measurement": "IC50", "setting": "IL-8", "result": "~450", "unit": "µM"}, {"measurement": "IC60, TNF-α transcriptional velocity", "setting": "TNF-α", "result": 400, "unit": "µM"}, {"measurement": "IC50", "setting": "IL-6", "result": "~225", "unit": "µM"}, {"measurement": "effect on IL-1α production", "setting": "IL-1α", "result": "no effect"}, {"measurement": "effect on hydrogen peroxide production", "setting": "[3]", "result": "no effect"}, {"measurement": "TauCl concentration at which cell viability (mitochondrial activity) is not altered", "setting": "mouse T cells", "result": "30 to 300", "unit": "µM"}, {"measurement": "TauCl concentration that is cytotoxic", "setting": "mouse T cells", "result": 300, "unit": "µM"}, {"measurement": "IC50", "setting": "[4]", "result": 550, "unit": "µM"}, {"measurement": "TauCl concentration that alters cell viability", "setting": "[7]", "result": "> 1", "unit": "mM"}, {"measurement": "Vmax of take-up", "setting": "rat RAW264.7 cells; LPS-stimulated macrophages", "result": 82.6, "unit": "pmol/min/10^6 cells"}, {"measurement": "Km", "setting": "rat RAW264.7 cells; LPS-stimulated macrophages", "result": 45.9, "unit": "µM"}, {"measurement": "Vmax of take-up", "setting": "rat RAW264.7 cells; relaxed rat RAW264.7 cells", "result": 51.3, "unit": "pmol/min/10^6 cells"}, {"measurement": "Km", "setting": "rat RAW264.7 cells; relaxed rat RAW264.7 cells", "result": 23.3, "unit": "µM"}, {"measurement": "bactericidal activity", "setting": "E. Coli", "result": "very low bactericidal activity"}, {"measurement": "TauCl concentration above which cell viability decreases significantly", "setting": "mouse dendritic cells", "result": "> 0.5", "unit": "mM"}]}, {"smiles": "OCl", "note": "[NaOCl, sodium hypochlorite]", "values": [{"measurement": "stability", "setting": "[8]; levels below 5 g/l of available chlorine", "result": "under 2 weeks"}, {"measurement": "stability of NaOCl oxidative activity", "setting": "[8]; pH value between 10 and 10.5 (EP 0471129 A1)", "result": "greater than 24 months"}, {"measurement": "NaOCl stability", "setting": "[8]; temperature increased to 37° C.", "result": "below 24 hours"}, {"measurement": "NaOCl concentration at which cell morbidity is complete", "setting": "human fibroblasts [9]", "result": 16.8, "unit": "mM"}, {"measurement": "cells alive", "setting": "human fibroblasts [9]; 67,165 μmol/l<(NaOCl)<671,655 μmol/l", "result": 100, "unit": "%"}, {"measurement": "NaOCl concentration of highest efficiency in stimulating growth and cell proliferation", "setting": "human fibroblasts [9]; FCS presence (2%)", "result": 33.6, "unit": "µM"}, {"measurement": "NaOCl concentration at which viability is not altered and growth and proliferation are stimulated", "setting": "human fibroblasts [9]; FCS presence (2%), 24 hours of exposure", "result": "< 672", "unit": "µM"}, {"measurement": "NaOCl concentration at which cell viability is altered", "setting": "human fibroblasts [9]; observed for 24 hours after a 15-minute exposition", "result": "≥ 1,0075 mM"}, {"measurement": "cells alive", "setting": "macrophages [10]", "result": 95, "unit": "%"}, {"measurement": "cells that keep their adherence to substrates", "setting": "macrophages [10]", "result": 40, "unit": "%"}, {"measurement": "NaOCl concentration at which cell viability is highly altered (irreversible)", "setting": "[11]", "result": 1, "unit": "mM"}, {"measurement": "NaOCl concentration at which toxicity can be neutralized by an antioxidant addition", "setting": "[12]", "result": "< 3.358", "unit": "mM"}, {"measurement": "NaOCl concentration at which toxicity is very low with an antioxidant presence", "setting": "[12]", "result": "< 1.679", "unit": "mM"}, {"measurement": "NaOCl concentration with high toxicity", "setting": "[12]", "result": "> 6.7165", "unit": "mM"}, {"measurement": "NaOCl concentration at which toxicity cannot be neutralized by antioxidants", "setting": "[12]; antioxidants at physiological concentrations", "result": 13.433, "unit": "mM"}]}, {"smiles": "O=S(=O)([O-])CCNCl.[Na+]", "note": "[taurine N-chloramine sodium salt]", "values": [{"measurement": "stability decrease in 15 days", "setting": "aqueous solution, pH=8.3", "result": "around 30%"}, {"measurement": "stability decrease in 65 days", "setting": "aqueous solution, pH=8.3", "result": "around 61%"}, {"measurement": "stability decrease per day after the first 15 days", "setting": "aqueous solution, pH=8.3", "result": "around 0.71 % per day"}]}]}
